Assay results reported in PMC2734971 (Pharmaceutical research, 2009).
Where no end group is shown, it is not given here.

Experiments:
[1] = system: solid tumors / αVβ3 integrins; details: prostate tumors; cited from earlier work
[2] = system: MDA-MB-231 tumor xenografts; test: In vivo MR T1-mapping of MDA-MB-231 tumor-bearing SCID mice; parameters: species or system SCID mice (human breast cancer xenograft)
kidney = test: T1-weighted coronal MR imaging, kidney signal; format: in vivo, SCID mice; details: up to 24 h; 0.03 mmol-Gd/kg i.v.; 9.4 tesla

## KACDCRGDCFCG (also: bicyclic or more (positions not given here)) [RGD4C]
[1]
  enhancement of tumor accumulation vs copolymers without targeting peptide: four to fivefold enhancement

## P-RGDfK-Gd: HPMA copolymer with Gd-DOTA and RGDfK side chains; Mw 43,000; 0.428 mmol/g RGDfK, 0.14 mmol/g Gd
[2]; 10 min, 30 min, 1, 6, 24 h, 0.03 mmol-Gd/kg i.v.
  T1 at tumor site, targetable vs non-targetable, other time points: no significant difference
[2]; 2 h after i.v. injection, 0.03 mmol-Gd/kg, 9.4 tesla, 4 mice/group, mean±SD
  mean T1 value at tumor site, 2 h post-injection: 1950 ± 189.8 ms
kidney
  signal enhancement in kidney: signal enhancement in kidney up to 24 h
